From patent US7612067B2, “Imidazopyridazine compounds” (Eli Lilly and Company, priority 2005, dated 2009)
Where a chain is given by its changes, count along the chain named. Structures can show the parent of a compound that is named as a salt. Where two headings read alike, the source gives them in different places. One block for each molecule: values may come before it.

Columns and labels:
[1] = single intravenous dose, comparison CRF antagonists with literature references; cited from earlier work
[2] = Volume of distribution after single intravenous dose; format: in vivo, rat; settings: male Sprague Dawley rats, single 3 mg/kg intravenous dose
Description: The volume of distribution (Vdist) relates the amount of the drug in the body to the concentration of the drug in the blood or plasma. The volume of distribution refers to the fluid volume that would be required to contain the total amount of the drug in the body at the same concentration as in the blood or plasma: Vdist=amount of drug in the body/concentration of drug in blood or plasma (Goodman and Gillman's). For a 10 mg dose and a plasma concentration of 10 mg/L, the volume of distribution would be 1 liter. The volume of distribution reflects the extent to which the drug is present in the extravascular tissue. A large volume of distribution reflects the tendency of a compound to bind to the tissue components compared with plasma protein binding. In a clinical setting, Vdist can be used to determine a loading dose achieve a steady state concentration.
To test for volume of distribution, Male Sprague Dawley rats (N=3) are administered a single 3 mg/kg intravenous dose of compound. Multiple plasma samples are collected at time points from 0.08 to 24 hours post-dose. The plasma samples are analyzed by LC/MS/MS to determine the plasma concentrations. Plasma pharmacokinetic calculations are performed to determine the pharmacokinetic parameters including Vdist and plasma clearance (Clp).

[3] = biological target: T1, human CRF1 (Homo sapiens, UniProt P34998); assay: CRF1 filter binding assay; settings: HEK-hCRF1 membranes, 125I-sauvagine; read-out: Ki (inhibition constant)
T1 construct: expressed in transfected cells; membranes used
T1 sequence (P34998 24-415): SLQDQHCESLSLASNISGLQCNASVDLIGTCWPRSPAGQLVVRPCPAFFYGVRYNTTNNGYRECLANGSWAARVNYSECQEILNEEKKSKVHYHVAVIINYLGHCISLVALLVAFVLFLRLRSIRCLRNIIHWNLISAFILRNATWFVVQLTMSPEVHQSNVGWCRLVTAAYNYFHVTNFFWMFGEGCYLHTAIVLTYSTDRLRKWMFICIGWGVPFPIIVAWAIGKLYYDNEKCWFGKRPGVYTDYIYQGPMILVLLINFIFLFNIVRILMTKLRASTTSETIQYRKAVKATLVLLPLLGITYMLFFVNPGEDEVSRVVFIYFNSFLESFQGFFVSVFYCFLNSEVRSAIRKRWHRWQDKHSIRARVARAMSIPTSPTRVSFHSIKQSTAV
Description: The limitations of plasmid-based human CRF1 expression, in terms of generating a recombinant cell line with sufficient receptor density to develop a binding assay, are overcome by using a Phoenix retroviral expression system licensed from Stanford. The stable HEK-hCRF1 cell line is used to prepare membranes and binding reactions (200 μl) are set up as follows: 50 μl of ^125I-sauvagine (0.2 nM final), 50 μl compound and 100 μl CRF1 membrane (25 μg/reaction). The reactions are incubated at room temperature for 2 hours and then terminated by filtration through pre-treated FB Millipore glass fiber filter plates (96 well). The plates are wash twice with ice-cold assay buffer (50 mM tris, 12.5 mM NaCl, 1 mM EDTA, 10 mM MgCl2, 0.05% BSA, pH 7.2), air dried over night and counted with 100 μl Microscint 40 in a MicroBeta counter. Non-specific binding (NSB) is determined in the presence of 0.5 μM non-labeled sauvagine. Triplicate determinations are typically run and the median data points plotted by Graph Pad Prism.

[4] = biological target: T2, human CRF2 (Homo sapiens, UniProt Q13324); assay: CRF2 filter binding assay; settings: 50 μM compound, HEK-hCRF2 membranes, 125I-sauvagine
T2 construct: expressed in transfected cells; membranes used
T2 sequence (Q13324 1-411): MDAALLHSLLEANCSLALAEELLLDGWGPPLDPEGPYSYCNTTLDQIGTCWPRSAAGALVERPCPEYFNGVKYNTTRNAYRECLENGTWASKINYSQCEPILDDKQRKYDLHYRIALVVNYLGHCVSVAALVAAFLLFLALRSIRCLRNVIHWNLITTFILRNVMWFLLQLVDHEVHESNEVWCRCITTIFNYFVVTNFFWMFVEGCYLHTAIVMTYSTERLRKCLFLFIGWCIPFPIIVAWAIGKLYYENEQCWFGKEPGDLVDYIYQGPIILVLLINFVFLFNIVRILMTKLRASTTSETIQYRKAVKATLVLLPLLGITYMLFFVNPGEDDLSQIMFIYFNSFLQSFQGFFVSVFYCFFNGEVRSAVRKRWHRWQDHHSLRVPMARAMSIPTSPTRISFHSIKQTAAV
Description: The limitations of plasmid-based human CRF2 expression, in terms of generating a recombinant cell line with sufficient receptor density to develop a binding assay, are overcome by using a Phoenix retroviral expression system licensed from Stanford. The stable HEK-hCRF2 cell line is used to prepare membranes and binding reactions (200 μl) are set up as follows: 50 ul of ^125I-sauvagine (0.2 nM final concentration), 50 μl compound and 100 μl CRF2 membrane (25 μg/reaction). The reactions are incubated at room temperature for 2 hours and then terminated by filtration through pre-treated FB Millipore glass fiber filter plates (96 well). The plates are washed twice with ice-cold assay buffer (50 mM tris, 12.5 mM NaCl, 1 mM EDTA, 10 mM MgCl2, 0.05% BSA, pH 7.2), air dried over night and counted with 100 μl Microscint 40 in a MicroBeta counter. Non-specific binding (NSB) is determined in the presence of 0.5 μM non-labeled sauvagine. Alternatively, compounds are evaluated using a Scintillation Proximity assay. […] Bound radioactivity is assessed using a Wallac Trilux scintillation counter. Binding is assessed typically using triplicate determinations and the median data points plotted by Graph Pad Prism. […]

[5] = biological target: T3, binding of 125I-sauvagine to the cerebellum (Rattus norvegicus, UniProt P35353); assay: In vivo potency assessment using ex vivo binding; settings: oral route, ex vivo 125I-sauvagine binding to cerebellum
T3 construct: from tissue; host or cells: rat cerebellum
T3 sequence (P35353 24-415): T1 sequence (P34998 24-415) with H6R, S9N, A13T, I16V, M153V, G163A, I209V, Y229H, H356R
Description: To assess in vivo potency, a compound of the present invention is evaluated using ex vivo binding. Using the procedures as provided in D. R. Gehlert et al., EJP 509: 145-153 (2005), a compound is administered to a rat via the oral route.

Structure (SMILES): CCCN(CCC)c1cc(C)nc2c(-c3cnc(N(C)C)cc3C)c(C)nn12 [NBI30775]
rat Vdist [1]: 76 L/kg

Structure (SMILES): CCCCN(CC)c1nc(C)nc2c1c(C)cn2-c1c(C)cc(C)cc1C [CP154526]
rat Vdist [1]: 114 L/kg

Structure (SMILES): CCC(CC)c1cc(C)nn2c(-c3sc(-c4ccc(F)cc4)cc3C)c(C)nc12 [Example 39, 8-(1-ethyl-propyl)-3-[5-(4-fluoro-phenyl)-3-methyl-thiophen-2-yl]-2,6-dimethyl-imidazo[1,2-b]pyridazine]
rat Vdist [2]: 17 L/kg

Now from value to molecule:

rat Vdist [2]: 44 L/kg
Structure (SMILES): CCC(CC)c1cc(C)nn2c(-c3sc(-c4ncnn4C)cc3Cl)c(C)nc12 [Example 88, 3-[3-chloro-5-(2-methyl-2H-[1,2,4]triazol-3-yl)-thiophen-2-yl]-8-(1-ethyl-propyl)-2,6-dimethyl-imidazo[1,2-b]pyridazine]

Ki [3]: 4.92 ± 0.57 nM | inhibition at 50 µM ([4]; read-out: percent inhibition at 50 μM): 9 ± 2.6%
Structure (SMILES): CCC(CC)c1cc(C)nn2c(-c3sc(N4CCOCC4)nc3Cl)c(C)nc12 [Example 102, N-{4-chloro-5-[8-(1-ethyl-propyl)-2,6-dimethyl-imidazo[1,2-b]pyridazin-3-yl]-thiazol-2-yl}-morpholine, hydrochloride salt]

rat Vdist [2]: 9 L/kg
Structure (SMILES): CCC(CC)c1cc(C)nn2c(-c3sc(-c4ncnn4C)nc3Br)c(C)nc12 [Example 48, 3-[4-bromo-2-(2-methyl-2H-[1,2,4]triazol-3-yl)-thiazol-5-yl]-8-(1-ethyl-propyl)-2,6-dimethyl-imidazo[1,2-b]pyridazine]

Ki [3]: 9.98 ± 0.72 nM | ED50 [5]: 1.3 mg/kg | percent inhibition at 50 μM [4]: 16.9±1.9% | rat Vdist [2]: 2 L/kg
Structure (SMILES): CCC(CC)c1cc(C)nn2c(-c3sc(N4CCOCC4)nc3Cl)c(C)nc12 [Example 199, N-{4-chloro-5-[8-(1-ethyl-propyl)-2,6-dimethyl-imidazo[1,2-b]pyridazin-3-yl]-thiazol-2-yl}-morpholine]
